Data on five molecules can be found in patent US20040043903A1, “2-Aryl-5-trifluoromethylpyridines” (priority 2000, published 2004).

Common to all, as to assay: post-emergence herbicidal action, greenhouse experiments
One experiment relates to ECHCG. Format: in vivo, barnyardgrass. The text has this:
(§1) The culture containers used were plastic pots with loamy sand with approximately 3.0% humus as substrate. The seeds of the test plants were sown separately for each species.
(§2) For the purposes of the post-emergence treatment, the test plants were first grown to a height of 3 to 15 cm, depending on the growth habit, and only then treated with the active ingredients which were suspended or emulsified in water. To this end, the test plants were either sown directly and grown on in the same containers, or else they were first grown separately as seedlings and then transplanted into the experimental containers a few days prior to treatment. The application rate for the post-emergence treatment was 31.3, 15.6, 7.8 and/or 3.9 g of a.s./ha.
(§3) The plants were kept at temperatures of 10-25° C. or 20-35° C., depending on the species. The experimental period extended over 2 to 4 weeks. During this time, the plants were tended, and their response to the individual regimes were evaluated.
(§4) For the evaluation, a scale of 0 to 100 was used. 100 means no emergence of the plants, or complete destruction of at least the aerial parts, and 0 means no damage or normal course of growth.
(§5) The plants used in the greenhouse experiments consisted of the following species: […]

The next experiment deals with SETFA. Type of experiment: in vivo, giant foxtail. Particulars: for Harmful plant/action (post-emergence herbicidal action): scale 0 to 100.
From the text: as §1
(§6) For the purposes of the post-emergence treatment, the test plants were first grown to a height of 3 to 15 cm, depending on the growth habit, and only then treated with the active ingredients which were suspended or emulsified in water. To this end, the test plants were either sown directly and grown on in the same containers, or else they were first grown separately as seedlings and then transplanted into the experimental containers a few days prior to treatment. […]
as §3, §4, §5

The subject of the next experiment is BIDPI. Format: in vivo, hairy beggarticks. The following applies: for Harmful plant/action (post-emergence herbicidal action): scale 0 to 100.
From the text: as §1, §6, §3, §4, §5

The subject of the next experiment is CHEAL. Format: in vivo, lambsquarters. Particulars: for Harmful plant/action (post-emergence herbicidal action): scale 0 to 100.
From the text: as §1, §2, §3, §4, §5

The test system of a further experiment is BRAPL. Format: in vivo, alexandergrass.
From the text: as §1, §2, §3, §4, §5

Setting [1] is: 31.3 and 15.6 g of a.s./ha, compared with Comparative Example VA.
Setting [2] is: application rate 15.6 g/ha a.s.
The mark [3] stands for this setting: application rate 31.3 g/ha a.s.
The mark [4] stands for this setting: 7.8 and 3.9 g of a.s./ha, compared with Comparative Example VB.
The mark [5] stands for this setting: 7.8 and 3.9 g of a.s./ha, compared with Comparative Example VC.

As to `COc1cc(-c2ncc(C(F)(F)F)c(C)c2Cl)c(F)cc1Cl` [IAa.3, 2-(2-fluoro-4-chloro-5-methoxyphenyl-1-yl)-3-chloro-4-methyl-5-trifluoromethylpyridine], the “action against the harmful plant compared with Comparative Example” value (“action … compared with Comparative Example” below) with ECHCG (setting [1]), in the experiment on SETFA (setting [1]), in the experiment with BIDPI (setting [1]) and in the experiment with CHEAL (setting [1]) was “considerably better action” throughout. In addition, the “Harmful plant/action (post-emergence herbicidal action)” value (from here on “Harmful plant/action”) turned out to be 90 in the experiment on ECHCG (application rate 15.6 g/ha a.s., scale 0 to 100); 100 in the experiment with ECHCG (application rate 31.3 g/ha a.s., scale 0 to 100 (100 = complete destruction, 0 = no damage)); 95 in the experiment on SETFA (setting [2]); 100 in the experiment with SETFA (setting [3]); 60 with BIDPI (setting [2]); 60 in the experiment on BIDPI (setting [3]). For the same molecule, the “Harmful plant/action” value in the experiment on CHEAL (setting [2]) and in the experiment on CHEAL (setting [3]) was 100 throughout.

For `C#CCOc1cc(-c2ncc(C(F)(F)F)c(C)c2Cl)c(F)cc1Cl` [IAa.10, 2-(2-Fluoro-4-chloro-5-propargyloxyphenyl)-3-chloro-4-methyl-5-trifluoromethylpyridine], the “action … compared with Comparative Example” value with ECHCG (setting [4]), with SETFA (setting [4]) and in the experiment with BIDPI (setting [4]) was “considerably better action” throughout. Moreover, the “Harmful plant/action” value was determined as 70 with ECHCG (application rate 3.9 g/ha a.s., scale 0 to 100); 85 in the experiment with ECHCG (application rate 7.8 g/ha a.s., scale 0 to 100); 98 in the experiment on SETFA (application rate 3.9 g/ha a.s.); 98 in the experiment with SETFA (application rate 7.8 g/ha a.s.); 100 in the experiment with BIDPI (application rate 3.9 g/ha a.s.); 100 with BIDPI (application rate 7.8 g/ha a.s.). For the same molecule, the “Harmful plant/action” value with CHEAL (application rate 3.9 g/ha a.s.) and in the experiment on CHEAL (application rate 7.8 g/ha a.s.) was 100 throughout.

As to `CCc1nc2c(Cl)cc(F)c(-c3ncc(C(F)(F)F)c(C)c3Cl)c2o1` [ICe.3, 4-Chloro-7-[3-chloro-4-methyl-5-(trifluoromethyl)-2-pyridinyl]-2-ethyl-6-fluoro-1,3-benzoxazole], the “action … compared with Comparative Example” value in the experiment with SETFA (setting [5]), with BIDPI (setting [5]) and with BRAPL (setting [5]) was “considerably better action” each time. The “post-emergence herbicidal action, SETFA” value with SETFA (application rate 3.9 g/ha a.s.) and in the experiment on SETFA (application rate 7.8 g/ha a.s.) was 100 in each case. For the same molecule, the “post-emergence herbicidal action, BIDPI” value with BIDPI (application rate 3.9 g/ha a.s.) and in the experiment on BIDPI (application rate 7.8 g/ha a.s.) was 100 throughout. Moreover, the “post-emergence herbicidal action, BRAPL” value was found to be 80 with BRAPL (application rate 3.9 g/ha a.s.) and 90 in the experiment on BRAPL (application rate 7.8 g/ha a.s.).

With `CCc1nc2c(Cl)cc(F)c(-c3ncc(C(F)(F)F)cc3Cl)c2o1` [VC, reference compound], the “post-emergence herbicidal action, SETFA” value in the experiment with SETFA (application rate 3.9 g/ha a.s.) worked out at 90; in the experiment on SETFA (application rate 7.8 g/ha a.s.), 95. For the same molecule, the “post-emergence herbicidal action, BIDPI” value with BIDPI (application rate 3.9 g/ha a.s.) was determined as 50; with BIDPI (application rate 7.8 g/ha a.s.) it was 55. Also, the “post-emergence herbicidal action, BRAPL” value is recorded as 40 in the experiment with BRAPL (application rate 3.9 g/ha a.s.) and 55 with BRAPL (application rate 7.8 g/ha a.s.).

As for `C#CCN1C(=O)COc2cc(F)c(-c3ncc(C(F)(F)F)cc3Cl)cc21` [VD, reference compound], the “post-emergence herbicidal action, SETFA” value in the experiment on SETFA (application rate 1.9 g/ha a.s.) came to 60; with SETFA (application rate 3.9 g/ha a.s.), 90. The “post-emergence herbicidal action, BIDPI” value in the experiment on BIDPI (application rate 1.9 g/ha a.s.) is listed as 50; in the experiment with BIDPI (application rate 3.9 g/ha a.s.), 55.
